Experimental data from PubChem BioAssay (NCI).
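Step 1: Grow cells in 96-well plates. Step 2: Expose to compound for 48 hours at 5 concentrations. Step 3: Interpolate endpoints linearly; if unreached, use highest concentration. TGI: concentration producing complete growth inhibition.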

Key:
Assay in all cases: NCI anticancer screen, dose series, 48 h
A498 renal = system: A498 renal
HS 578T breast = system: HS 578T breast
HOP-62 NSCLC = system: HOP-62 NSCLC
NCI-H460 lung = system: NCI-H460 lung
ACHN renal = system: ACHN renal
A549 NSCLC = system: A549 NSCLC
SW-620 colon = system: SW-620 colon
SK-OV-3 ovarian = system: SK-OV-3 ovarian
HCT-116 colon = system: HCT-116 colon
OVCAR-8 ovarian = system: OVCAR-8 ovarian
SK-MEL-2 melanoma = system: SK-MEL-2 melanoma
LOX IMVI melanoma = system: LOX IMVI melanoma
TK-10 renal = system: TK-10 renal
KM12 colon = system: KM12 colon
SF-539 CNS = system: SF-539 CNS

SMILES	TGI (A498 renal)	TGI (HS 578T breast)	TGI (HOP-62 NSCLC)	TGI (NCI-H460 lung)	TGI (ACHN renal)	TGI (A549 NSCLC)	TGI (SW-620 colon)	TGI (SK-OV-3 ovarian)	TGI (HCT-116 colon)	TGI (OVCAR-8 ovarian)	TGI (SK-MEL-2 melanoma)	TGI (LOX IMVI melanoma)	TGI (TK-10 renal)	TGI (KM12 colon)	TGI (SF-539 CNS)
CN(CCc1ccccn1)C(=S)N/N=C(\c1ccccc1)c1ccccn1	0.942 µM	> 26.4 µM	7.95 µM	7.07 µM	1.92 µM	8.42 µM	20.2 µM	2.19 µM	2.02 µM	1.56 µM	4.35 µM	2.04 µM	3.27 µM	2.37 µM	
CC(C)(NC(=O)OCc1ccccc1)C(=O)OC(=O)C(C)(C)NC(=O)OCc1ccccc1	> 100 µM	> 100 µM	> 100 µM	> 100 µM	> 100 µM	> 100 µM	> 100 µM	> 100 µM	> 100 µM	> 100 µM	> 100 µM	> 100 µM		> 100 µM	> 100 µM
C=C1C(=O)O[C@H]2C[C@@H]1[C@@H](O)[C@H](O)[C@@H](C)CCCC(C)=CCC[C@@]2(C)O	> 100 µM	43.9 µM	> 100 µM	54.1 µM	27.8 µM	> 100 µM		> 100 µM	51.8 µM		41.2 µM	65 µM	30.4 µM	> 100 µM	30.1 µM
COc1cc2c(/C=C3/C(=O)N(C)c4ccc(O)cc43)c(Cl)[nH]c2cc1C	5.39 µM	28.9 µM	3.94 µM	19.8 µM	16.8 µM	16.9 µM	21.3 µM	3.13 µM		15 µM	17.9 µM	17.3 µM	20.7 µM	6.64 µM	0.722 µM
O=C(O)c1nc2ccc(C(F)(F)F)cc2nc1Nc1ccc(F)cc1	37.6 µM	96.4 µM	34.7 µM	50.9 µM	> 100 µM		82.2 µM		35 µM	83.8 µM	34.8 µM	53.3 µM	> 100 µM	63 µM	
CC1=C(C)CC2(C=C(C(C)(C)C)C(=O)C(C(C)(C)C)=C2)SC1	35.4 µM	36.8 µM	37.9 µM	> 100 µM		65.3 µM	41.1 µM	71 µM	> 100 µM		26 µM	33.1 µM	37.9 µM	55 µM	38 µM
CCCCOC(=O)C1CC[C@H]2[C@@H]3CCc4cc(OC(=O)c5cccc6c(=O)c7ccccc7[nH]c56)ccc4[C@H]3CC[C@]12C (some centres not stated)	16.7 µM	39.7 µM	16.4 µM		15.6 µM	17.6 µM	30.5 µM	18 µM	17.1 µM	21.3 µM	18.5 µM	17.1 µM	14.7 µM	17 µM	
Cc1cc2nc3c(C#N)c4c(c(-c5ccc(Cl)cc5)n3c2cc1C)CCC4	79.4 µM	47.9 µM	46.2 µM	> 100 µM	59.5 µM	> 100 µM	> 100 µM	34.1 µM	32.7 µM		36 µM	90.6 µM	60.5 µM	47.8 µM	78.9 µM
O=C(O)/C=C/c1ccc2c(c1)CC1(Cc3ccccc3C1)C2	> 100 µM	> 100 µM	> 100 µM		> 100 µM	> 100 µM		> 100 µM	51.4 µM	> 100 µM	87.7 µM	> 100 µM	> 100 µM	> 100 µM	> 100 µM
N/C1=C/C(=O)NC(=O)c2c(c3ccccc3oc2=O)C1	> 100 µM	> 100 µM	> 100 µM	> 100 µM	> 100 µM	> 100 µM	> 100 µM		> 100 µM	> 100 µM	> 100 µM	> 100 µM	> 100 µM	> 100 µM	
O=C1C(c2c(O)[nH]c3ccc(Br)cc23)=Nc2ccc(Br)cc21	> 100 µM	> 100 µM	> 100 µM	> 100 µM	> 100 µM	> 100 µM	> 100 µM	90.8 µM	34.6 µM	81.3 µM	> 100 µM	> 100 µM	> 100 µM	> 100 µM	
COC(=O)C1(SC)C2CCC3C2CCC31 (configuration not stated)	> 100 µM	> 100 µM	> 100 µM	> 100 µM	> 100 µM	> 100 µM	> 100 µM	> 100 µM	> 100 µM	> 100 µM	> 100 µM	> 100 µM			> 100 µM
COc1cc2c(cc1OC)C(=O)/C(=C/c1cc(C)cc(C)c1)C2	48 µM	> 100 µM	> 61.2 µM	5.1 µM	> 100 µM	18 µM	> 90.7 µM	> 32.9 µM	11.6 µM		44.4 µM	> 96.8 µM	> 100 µM	13.5 µM	
COC1C(N(C)C)=C(c2ccccc2)C(=O)N2CCc3ccccc3C12 (configuration not stated)	> 100 µM	> 100 µM	> 100 µM		> 100 µM	> 100 µM	> 100 µM	> 100 µM	> 100 µM	> 100 µM	> 100 µM	> 100 µM	> 100 µM	> 100 µM	> 100 µM
